Data taken from publication PMC5641551, “Chemical Proteomics for Target Discovery of Head-to-Tail Cyclized Mini-Proteins” (Frontiers in Chemistry, 2017).
No end group written: not given here.

Assays:
IL-2 in T-lymphocytes = settings: reference not given; cited from earlier work
Description: 14-3-3s are ubiquitous adaptor proteins that are involved in cell signaling, cell cycle progression and apoptosis as well as protein-protein interaction and cellular transport (Aghazadeh and Papadopoulos, [2016]). The 14-3-3 family is often described as a chimera, since knockout of single isoforms may remain without or with minor phenotypic changes due to functional rescue through the recruitment of other family members. […] Many tumor suppressors or oncogenes are regulated by 14-3- ...

[1] = system: 14-3-3 proteins / 25 kDa protein band in murine splenocyte lysates; assay: photo-affinity pull down, splenocyte lysate, with competitors; assay type: binding, mouse; settings: competitors at 100-fold molar excess versus bait [T20K,W23Bpa]kB1, in-gel digestion and proteomics
Description: Splenocytes or Jurkat cells were lysed with 25 mM Tris-HCl pH 7.4, 40 mM KCl, 2.5 mM MgSO4 2.5 mM CaCl2, 2% (v/v) glycerol, 1 mM EDTA under repeated freeze-thaw cycles and 10 min sonification. All experiments were performed in buffer with 1x complete protease inhibitor cocktail (Hoffman-La Roche, Basel, Switzerland). Cell membranes and debris were pelleted for 30 min at 16,000 × g and the supernatant corresponds to the “soluble cell lysate.” Protein concentration was determined using a bicinchoninic acid assay kit (Thermo Scientific) and DTT (1 mM) was added to keep redox potential constant during binding experiments. Photo-affinity pull down samples were submitted to denaturing sodium dodecyl sulfate polyacrylamide gel electrophoresis (PAGE). For immunoblotting according to earlier published protocols (Gruber et al., [2007]; Bergmayr et al., [2013]) proteins were semi-dry transferred onto a nitrocellulose membrane 0.45 μM (Amersham Protran, GE Healthcare, Austria) using a Fast Semi-dry blotter (Bio-Rad) at 0.25 mA per gel for 1 h. Primary rabbit anti-GFP antibody (1:5,000) was from Invitrogen (A6455), rabbit anti-GST antibody (1:2,500) from Abcam (ab9085), and mouse anti-human calcineurin subunit A antibody (1:2,000) clone BE2.1 from eBioscience. Secondary ECL anti-mouse (NA931V) or ECL anti-rabbit (NA934VS) IgG antibodies (1:10,000) were conjugated with horse radish peroxidase (GE Healthcare). Chemo-luminescence signals were detected on an imaging system FluorChem HD2 (Alpha Innotech, CA, United States). For silver staining protein gels were treated immediately after electrophoresis with fixing solution EtOH/ddH2O/acetic acid 50/40/10% (v/v/v) for 20 min. Gels had to be washed acid free, first with 50% (v/v) EtOH for 10 min and with ddH2O for 2 h. Gels were exposed to sensitization buffer 0.025% Na2S2O3 in ddH2O for 3 min, followed by 2 min wash with ddH2O. Gels were silver loaded using a 0.15% AgNO3 solution for 45 min in the dark. The protein bands were stained in development buffer formaldehyde/Na2CO3 0.04/2% (v/w) under rigorous shaking. The reaction was quenched with 5% (v/v) acetic acid solution and the gels were stored until further processing in the stopping buffer at 4°C. Pixel quantification was carried out using ImageJ v1.47 (National Institute for Health).
Biotin-LC-LC-labeled (ThermoFisher) peptides (1–5 nmoles) with or without (non-biotinylated) competitor (20–100-fold molar excess) were incubated with Jurkat cell or murine splenocyte cell lysates (150–500 μg proteins) for 2 h at 4°C in the presence of protease inhibitors. UV-activation of photo-crosslinking moiety benzophenone was induced by irradiation at 360 nm on ice for 15 min (Stratalinker, Stratagene, CA, United States). […]

[2] = system: 14-3-3 proteins / 25 kDa protein in Jurkat cell lysates; assay: photo-affinity pull down, Jurkat cell lysate, with competition; assay type: binding, human; settings: competitor at 20-, 60- and 100-fold molar excess of biotinylated probe [T20K,W23Bpa]kB1, silver-stained gel
Description: Splenocytes or Jurkat cells were lysed with 25 mM Tris-HCl pH 7.4, 40 mM KCl, 2.5 mM MgSO4 2.5 mM CaCl2, 2% (v/v) glycerol, 1 mM EDTA under repeated freeze-thaw cycles and 10 min sonification. All experiments were performed in buffer with 1x complete protease inhibitor cocktail (Hoffman-La Roche, Basel, Switzerland). Cell membranes and debris were pelleted for 30 min at 16,000 × g and the supernatant corresponds to the “soluble cell lysate.” Protein concentration was determined using a bicinchoninic acid assay kit (Thermo Scientific) and DTT (1 mM) was added to keep redox potential constant during binding experiments. Photo-affinity pull down samples were submitted to denaturing sodium dodecyl sulfate polyacrylamide gel electrophoresis (PAGE). For immunoblotting according to earlier published protocols (Gruber et al., [2007]; Bergmayr et al., [2013]) proteins were semi-dry transferred onto a nitrocellulose membrane 0.45 μM (Amersham Protran, GE Healthcare, Austria) using a Fast Semi-dry blotter (Bio-Rad) at 0.25 mA per gel for 1 h. […] Chemo-luminescence signals were detected on an imaging system FluorChem HD2 (Alpha Innotech, CA, United States). […] Pixel quantification was carried out using ImageJ v1.47 (National Institute for Health). […]

## CGETCVGGTCNTPGCKCSWPVCTRNGLPV (also: bicyclic or more (positions not given here)) [[T20K]kB1, synthetic cyclotide drug candidate, Thr20 to Lys mutant of kalata B1]
IL-2 in T-lymphocytes
  regulatory cytokines such as IL-2 in T-lymphocytes of treated animals: significantly downregulated
[1]
  competition effect for 14-3-3 proteins (order): competition effect in the order [T20K]kB1 < [T20K,W23Bpa]kB1 < R18
[2]
  effect of competitor on 25 kDa protein band intensity: revealed an effect on the band intensity of a 25 kDa protein
